Assay [1] relates to Pasteurella. The assay can be described thus: etest on agar containing the booster. It is filed as cell-based. An excerpt: The corresponding tests are made based on the usual MIC test: the etest® (Biomerieux) strip is deposited onto the surface of a seeded agar medium in which the booster has been incorporated.
(§1) The control corresponds to the test made without cineol. A control is made in each solvent tested: distilled water, Tween/water and DMSO. • ED control=antibiotic alone in distilled water • DMSO control=antibiotic alone in DMSO • TE control=antibiotic alone in Tween® 80
Other e-tests are also made on Pasteurella.

Assay [2] concerns E. coli. The assay can be described thus: etest on agar containing the booster. It is filed as cell-based. The settings on record: Escherichia coli, read-out: MIC.
Excerpt: (§2) The corresponding tests are made based on the usual MIC test: the etest® (Biomerieux) strip is deposited onto the surface of a seeded agar medium in which the booster has been incorporated. This test enables solvent effect risks, that is a possible interaction with the solvent used in vitro, to be minimised.
as §1

The test system of assay [3] is Strain 10168/MRSA. The assay can be described thus: Resistance: occurrence of resistant mutants. The settings on record: 4 times the MIC; 48 h incubation; DMSO. It is filed as cell-based, S. aureus. The procedure: (§3) After 48 h incubation, the presence or absence of colonies likely to be resistant mutants is observed.
Assay [4] relates to Strain 9003/BLSE. The assay can be described thus: Resistance: occurrence of resistant mutants. It is filed as cell-based. The following applies: 4 times the MIC; 48 h incubation; DMSO. The procedure:
as §3

Assay [5] relates to Staphylococcus. In words: etest on agar containing the booster. It is filed as cell-based. The settings on record: MRSA 10178, read-out: MIC.
Excerpt: as §2, §1

Setting [6] is: strain 14012, 5 mg cineol water.
Setting [7] is: strain 14012, 10 mg cineol DMSO.
[8] abbreviates: strain 14012, 10 mg cineol water.
Setting [9] is: strain 14014, 5 mg cineol water.
Where [10] appears, read: strain 14014, 10 mg cineol DMSO.
Setting [11] is: strain 14014, 10 mg cineol water.
[12] abbreviates: Coli 8150, Cineol 1 mg Tween/water.
[13] abbreviates: Coli 8150, Cineol 4 mg Tween/water.
Setting [14] is: Coli 8150, Cineol 16 mg Tween/water.
Setting [15] is: Coli 8150, DMSO control (antibiotic alone).
Where [16] appears, read: Coli 8150, ED control (antibiotic alone in distilled water).
Setting [17] is: Coli 8150, Tween water control (antibiotic alone).

This is an account of results in patent US10668043B2, “Potentiated antimicrobial agents” (priority 2014, dated 2020).

Converted amounts (≈) assume the structure as drawn. Where two headings read alike, the source gives them in different places.

As usually defined, the MIC is the least concentration at which growth counts as inhibited.

On to `CO[C@@]1(NC(=O)Cc2cccs2)C(=O)N2C(C(=O)O)=C(COC(N)=O)CS[C@@H]21` [Cefoxitin], for which the MIC (e-test) in assay [1] (strain 14012, 5 mg cineol DMSO) was 0.5 µg/mL (≈ 1.17 µM); in assay [1] (strain 14012, 5 mg cineol TE), 0.5 µg/mL (≈ 1.17 µM); in assay [1] (setting [6]) it was 0.5 µg/mL (≈ 1.17 µM); in assay [1] (setting [7]) it was 0.38 µg/mL (≈ 0.889 µM); in assay [1] (strain 14012, 10 mg cineol TE), 0.5 µg/mL (≈ 1.17 µM); in assay [1] (setting [8]), 0.5 µg/mL (≈ 1.17 µM). Further, the MIC (e-test) in assay [1] (strain 14012, DMSO control) stood at 0.5 µg/mL (≈ 1.17 µM); in assay [1] (strain 14012, ED control), 0.5 µg/mL (≈ 1.17 µM); in assay [1] (strain 14012, TE control), 0.75 µg/mL (≈ 1.75 µM); in assay [1] (strain 14014, 5 mg cineol DMSO), 0.19 µg/mL (≈ 0.444 µM); in assay [1] (strain 14014, 5 mg cineol TE), 0.38 µg/mL (≈ 0.889 µM); in assay [1] (setting [9]), 0.5 µg/mL (≈ 1.17 µM). The MIC (e-test) in assay [1] (setting [10]) was determined as 0.5 µg/mL (≈ 1.17 µM); in assay [1] (strain 14014, 10 mg cineol TE) it was 0.38 µg/mL (≈ 0.889 µM); in assay [1] (setting [11]), 0.38 µg/mL (≈ 0.889 µM); in assay [1] (strain 14014, DMSO control) it was 0.38 µg/mL (≈ 0.889 µM); in assay [1] (strain 14014, ED Control), 0.38 µg/mL (≈ 0.889 µM); in assay [1] (strain 14014, TE control), 0.5 µg/mL (≈ 1.17 µM). The MIC worked out at 4 µg/mL (≈ 9.36 µM) in assay [2] (Coli 8138 (penicillinase), Cineol 1 mg DMSO); 4 µg/mL (≈ 9.36 µM) in assay [2] (Coli 8138 (penicillinase), Cineol 1 mg Tween/water); 4 µg/mL (≈ 9.36 µM) in assay [2] (Coli 8138 (penicillinase), Cineol 4 mg DMSO); 3 µg/mL (≈ 7.02 µM) in assay [2] (Coli 8138 (penicillinase), Cineol 4 mg Tween/water); 4 µg/mL (≈ 9.36 µM) in assay [2] (Coli 8138 (penicillinase), Cineol 16 mg DMSO); 1 µg/mL (≈ 2.34 µM) in assay [2] (Coli 8138 (penicillinase), Cineol 16 mg Tween/water). Also, the MIC was determined as 6 µg/mL (≈ 14 µM) in assay [2] (Coli 8138 (penicillinase), DMSO control (antibiotic alone)); 6 µg/mL (≈ 14 µM) in assay [2] (Coli 8138 (penicillinase), ED control (antibiotic alone in distilled water)); 6 µg/mL (≈ 14 µM) in assay [2] (Coli 8138 (penicillinase), Tween water control (antibiotic alone)); 8 µg/mL (≈ 18.7 µM) in assay [2] (Coli 8150, Cineol 1 mg DMSO); 3 µg/mL (≈ 7.02 µM) in assay [2] (setting [12]); 3 µg/mL (≈ 7.02 µM) in assay [2] (Coli 8150, Cineol 4 mg DMSO). For the same compound, the MIC in assay [2] (setting [13]) came to 3 µg/mL (≈ 7.02 µM); in assay [2] (Coli 8150, Cineol 16 mg DMSO) it was 3 µg/mL (≈ 7.02 µM); in assay [2] (setting [14]), 1 µg/mL (≈ 2.34 µM); in assay [2] (setting [15]) it was 8 µg/mL (≈ 18.7 µM); in assay [2] (setting [16]), 3 µg/mL (≈ 7.02 µM); in assay [2] (setting [17]), 6 µg/mL (≈ 14 µM).
`O=C(O)c1cn(C2CC2)c2cc(N3CCNCC3)c(F)cc2c1=O` [Ciprofloxacin, ciprofloxacin]: the “colonies likely to be resistant mutants” value is “invaded” in assay [3] and “Numerous” in assay [4]. Also, the MIC (e-test) in assay [1] (strain 14012, 5 mg cineol DMSO) amounted to 0.004 µg/mL (≈ 0.0121 µM); in assay [1] (strain 14012, 5 mg cineol TE), 0.004 µg/mL (≈ 0.0121 µM); in assay [1] (setting [6]) it was 0.003 µg/mL (≈ 0.00905 µM); in assay [1] (setting [7]), 0.004 µg/mL (≈ 0.0121 µM); in assay [1] (strain 14012, 10 mg cineol TE) it was 0.006 µg/mL (≈ 0.0181 µM); in assay [1] (setting [8]), 0.004 µg/mL (≈ 0.0121 µM). Also, the MIC (e-test) in assay [1] (strain 14012, DMSO control) was 0.006 µg/mL (≈ 0.0181 µM); in assay [1] (strain 14012, ED control), 0.004 µg/mL (≈ 0.0121 µM); in assay [1] (strain 14012, TE control) it was 0.006 µg/mL (≈ 0.0181 µM); in assay [1] (strain 14013, 5 mg cineol DMSO), 0.012 µg/mL (≈ 0.0362 µM); in assay [1] (strain 14013, 5 mg cineol TE), 0.012 µg/mL (≈ 0.0362 µM); in assay [1] (strain 14013, 5 mg cineol water), 0.012 µg/mL (≈ 0.0362 µM). The MIC (e-test) in assay [1] (strain 14013, 10 mg cineol DMSO) worked out at 0.012 µg/mL (≈ 0.0362 µM); in assay [1] (strain 14013, 10 mg cineol TE), 0.012 µg/mL (≈ 0.0362 µM); in assay [1] (strain 14013, 10 mg cineol water), 0.016 µg/mL (≈ 0.0483 µM); in assay [1] (strain 14013, DMSO control) it was 0.012 µg/mL (≈ 0.0362 µM); in assay [1] (strain 14013, ED control) it was 0.012 µg/mL (≈ 0.0362 µM); in assay [1] (strain 14013, TE control), 0.016 µg/mL (≈ 0.0483 µM).
Turning to `CCC[C@@H]1C[C@@H](C(=O)N[C@@H]([C@H]2O[C@H](SC)[C@H](O)[C@@H](O)[C@H]2O)[C@H](C)Cl)N(C)C1` [Clindamycin], the MIC in assay [5] (Cineol 1 mg DMSO) was 0.094 µg/mL (≈ 0.221 µM); in assay [5] (Cineol 1 mg Tween/water), 0.064 µg/mL (≈ 0.151 µM); in assay [5] (Cineol 4 mg DMSO), 0.064 µg/mL (≈ 0.151 µM); in assay [5] (Cineol 4 mg Tween/water), 0.064 µg/mL (≈ 0.151 µM); in assay [5] (Cineol 16 mg DMSO) it was 0.047 µg/mL (≈ 0.111 µM); in assay [5] (Cineol 16 mg Tween/water), 0.047 µg/mL (≈ 0.111 µM). Also, the MIC in assay [5] (DMSO control (antibiotic alone)) was determined as 0.064 µg/mL (≈ 0.151 µM); in assay [5] (ED control (antibiotic alone in distilled water)) it was 0.094 µg/mL (≈ 0.221 µM); in assay [5] (Tween water control (antibiotic alone)), 0.19 µg/mL (≈ 0.447 µM).
For `C[C@@H](O)[C@H]1C(=O)N2C(C(=O)O)=C(S[C@@H]3CN[C@H](C(=O)N(C)C)C3)[C@H](C)[C@H]12` [Meropenem], the MIC (e-test) is 0.006 µg/mL (≈ 0.0156 µM) in assay [1] (strain 14012, 5 mg cineol DMSO); 0.008 µg/mL (≈ 0.0209 µM) in assay [1] (strain 14012, 5 mg cineol TE); 0.006 µg/mL (≈ 0.0156 µM) in assay [1] (setting [6]); 0.006 µg/mL (≈ 0.0156 µM) in assay [1] (setting [7]); 0.008 µg/mL (≈ 0.0209 µM) in assay [1] (strain 14012, 10 mg cineol TE); 0.008 µg/mL (≈ 0.0209 µM) in assay [1] (setting [8]). Further, the MIC (e-test) in assay [1] (strain 14012, DMSO control) was 0.008 µg/mL (≈ 0.0209 µM); in assay [1] (strain 14012, ED control), 0.008 µg/mL (≈ 0.0209 µM); in assay [1] (strain 14012, TE control) it was 0.023 µg/mL (≈ 0.06 µM); in assay [1] (strain 14014, 5 mg cineol DMSO), 0.012 µg/mL (≈ 0.0313 µM); in assay [1] (strain 14014, 5 mg cineol TE), 0.016 µg/mL (≈ 0.0417 µM); in assay [1] (setting [9]) it was 0.016 µg/mL (≈ 0.0417 µM). Further, the MIC (e-test) in assay [1] (setting [10]) came to 0.016 µg/mL (≈ 0.0417 µM); in assay [1] (strain 14014, 10 mg cineol TE) it was 0.012 µg/mL (≈ 0.0313 µM); in assay [1] (setting [11]) it was 0.016 µg/mL (≈ 0.0417 µM); in assay [1] (strain 14014, DMSO control) it was 0.016 µg/mL (≈ 0.0417 µM); in assay [1] (strain 14014, ED Control) it was 0.012 µg/mL (≈ 0.0313 µM); in assay [1] (strain 14014, TE control), 0.012 µg/mL (≈ 0.0313 µM). For the same compound, the minimum inhibitory concentration (MIC) in assay [2] (Coli 8150, Cineol 1 mg DMSO) was 0.064 µg/mL (≈ 0.167 µM); in assay [2] (setting [12]) it was 0.064 µg/mL (≈ 0.167 µM); in assay [2] (Coli 8150, Cineol 4 mg DMSO), 0.064 µg/mL (≈ 0.167 µM); in assay [2] (setting [13]), 0.047 µg/mL (≈ 0.123 µM); in assay [2] (Coli 8150, Cineol 16 mg DMSO), 0.064 µg/mL (≈ 0.167 µM); in assay [2] (setting [14]) it was 0.1 µg/mL (≈ 0.261 µM). Further, the figures for the MIC in assay [2] (setting [15]), in assay [2] (setting [16]) and in assay [2] (setting [17]) were 0.094 µg/mL (≈ 0.245 µM), 0.047 µg/mL (≈ 0.123 µM) and 0.094 µg/mL (≈ 0.245 µM), respectively.
